Measurements from US20020169209A1, “Potentiation of therapeutic effects of fatty acids” (priority 2001, published 2002).

What was measured:
depression = assay: Case history: person seriously depressed for over 10 years; assay type: in vivo, human; conditions: one patient; ibuprofen alone
Method: Because there is evidence of elevated formation of prostaglandins in depression, they were given a combined COX-1 and COX-2 inhibitor, ibuprofen. […] The ibuprofen was stopped and they were treated with ethyl-eicosapentaenoate at a dose of 1 g/day. This seemed to have a modest effect but they remained far from well.

[1] = system: forgetfulness, possibly developing Alzheimer's disease (AD); assay: Case history: forgetful person, possible Alzheimer's disease; assay type: in vivo, human; conditions: one patient; indomethacin alone over six months or so
Method: A person had become very forgetful and their family was concerned that they might be developing Alzheimer's disease (AD). Because there is evidence that the NSAID indomethacin may be able to slow down the progression of AD, their child, who was a doctor, prescribed indomethacin. […] Because of animal work on the beneficial effects of AA in the aging rat brain, 800 mg of AA in triglyceride form was added to the treatment regime.

Row | Compound | effect on depression (depression) | effect on forgetfulness [1]
1 | CC(C)Cc1ccc(C(C)C(=O)O)cc1 (centres unmarked) [ibuprofen] | marginal effect but this was not apparent to observers | 
2 | COc1ccc2c(c1)c(CC(=O)O)c(C)n2C(=O)c1ccc(Cl)cc1 [indomethacin] |  | may have had a slight effect but there was no dramatic change
